# Reference: PubChem BioAssay AID248 (DTP/NCI, 2004)
# Several values for one entry are separate records, joined by “and”; a condition that tells them apart may be missing. Equal values may be shown once. Inconclusive results and toxic doses are left out.
# System: L1210 leukemia ip in BDF1 mice, survival T/C
# Test: NCI In Vivo Anticancer Drug Screen. Data for tumor model L1210 Leukemia (intraperitoneal) in B6D2F1 (BDF1) mice
# Conditions: endpoint: mean survival time, higher = longer survival
# Outline: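 In this screen, tumor-bearing mice given compound are compared to those given vehicle, and their survival values are reported as a treated-to-control quotient.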
# [1] = dose: 50.0 mg/kg/injection, schedule: Q01DX001 (ip), vehicle: saline with Tween-80
# [2] = dose: 100.0 mg/kg/injection, schedule: Q01DX001 (ip), vehicle: saline with Tween-80
# [3] = dose: 50.0 mg/kg/injection, schedule: Q01DX001 (ip), vehicle: saline
# [4] = dose: 100.0 mg/kg/injection, schedule: Q01DX001 (ip), vehicle: saline
# [5] = dose: 200.0 mg/kg/injection, schedule: Q01DX001 (ip), vehicle: saline
# [6] = dose: 400.0 mg/kg/injection, schedule: Q01DX001 (ip), vehicle: saline
# [7] = dose: 100.0 mg/kg/injection, schedule: Q01DX001 (ip), vehicle: carboxymethylcellulose (CMC)
# [8] = dose: 200.0 mg/kg/injection, schedule: Q01DX001 (ip), vehicle: carboxymethylcellulose (CMC)
# [9] = dose: 400.0 mg/kg/injection, schedule: Q01DX001 (ip), vehicle: carboxymethylcellulose (CMC)
# [10] = dose: 50.0 mg/kg/injection, schedule: Q04DX003 (ip), vehicle: saline
# [11] = dose: 50.0 mg/kg/injection, schedule: Q01DX009 (ip), vehicle: saline
# [12] = dose: 100.0 mg/kg/injection, schedule: Q01DX009 (ip), vehicle: Klucel (hydroxypropylcellulose) (HPC)
# [13] = dose: 200.0 mg/kg/injection, schedule: Q01DX009 (ip), vehicle: Klucel (hydroxypropylcellulose) (HPC)
# [14] = dose: 400.0 mg/kg/injection, schedule: Q01DX009 (ip), vehicle: Klucel (hydroxypropylcellulose) (HPC)
# [15] = dose: 100.0 mg/kg/injection, schedule: Q04DX003 (ip), vehicle: Klucel (hydroxypropylcellulose) (HPC)
# [16] = dose: 200.0 mg/kg/injection, schedule: Q04DX003 (ip), vehicle: Klucel (hydroxypropylcellulose) (HPC)
# [17] = dose: 400.0 mg/kg/injection, schedule: Q04DX003 (ip), vehicle: Klucel (hydroxypropylcellulose) (HPC)
# [18] = dose: 25.0 mg/kg/injection, schedule: Q01DX009 (ip), vehicle: Klucel (hydroxypropylcellulose) (HPC)
# [19] = dose: 50.0 mg/kg/injection, schedule: Q01DX009 (ip), vehicle: Klucel (hydroxypropylcellulose) (HPC)
smiles,measurement,setting,value
CCN(C=O)c1ccc(NC=O)cc1,T/C,[1],104 % of control
same,T/C,[2],94 % of control and 100 % of control
same,T/C,"dose: 100.0 mg/kg/injection, schedule: Q04DX002 (ip), vehicle: saline with Tween-80",103 % of control
same,T/C,"dose: 100.0 mg/kg/injection, schedule: Q04DX003 (ip), vehicle: saline with Tween-80",97 % of control
same,T/C,"dose: 200.0 mg/kg/injection, schedule: Q01DX001 (ip), vehicle: saline with Tween-80",94 % of control and 91 % of control
same,T/C,"dose: 200.0 mg/kg/injection, schedule: Q04DX002 (ip), vehicle: saline with Tween-80",97 % of control
same,T/C,"dose: 200.0 mg/kg/injection, schedule: Q04DX003 (ip), vehicle: saline with Tween-80",95 % of control and 91 % of control
same,T/C,"dose: 400.0 mg/kg/injection, schedule: Q01DX001 (ip), vehicle: saline with Tween-80",94 % of control
same,T/C,"dose: 400.0 mg/kg/injection, schedule: Q04DX002 (ip), vehicle: saline with Tween-80",101 % of control
same,T/C,"dose: 400.0 mg/kg/injection, schedule: Q04DX003 (ip), vehicle: saline with Tween-80",103 % of control and 108 % of control
CN(C)CCCN1CCCCC1,T/C,[3],106 % of control
same,T/C,[4],115 % of control
same,T/C,[5],110 % of control
same,T/C,[6],104 % of control
O=C1c2cc([N+](=O)[O-])ccc2SC2C=CSC12 (stereo unspecified),T/C,[7],94 % of control
same,T/C,[8],108 % of control
same,T/C,[9],100 % of control
COc1cc(C=Nc2cccc(Br)c2)ccc1N(CCCl)CCCl,T/C,"dose: 1.4 mg/kg/injection, schedule: Q01DX015 (ip), vehicle: carboxymethylcellulose (CMC)",107 % of control
same,T/C,"dose: 2.2 mg/kg/injection, schedule: Q01DX015 (ip), vehicle: carboxymethylcellulose (CMC)",111 % of control
same,T/C,"dose: 3.3 mg/kg/injection, schedule: Q01DX009 (ip), vehicle: saline",101 % of control
same,T/C,"dose: 3.3 mg/kg/injection, schedule: Q01DX015 (ip), vehicle: carboxymethylcellulose (CMC)",113 % of control
same,T/C,"dose: 5.0 mg/kg/injection, schedule: Q01DX009 (ip), vehicle: saline",116 % of control
same,T/C,"dose: 5.0 mg/kg/injection, schedule: Q01DX015 (ip), vehicle: carboxymethylcellulose (CMC)",119 % of control and 121 % of control
same,T/C,"dose: 9.0 mg/kg/injection, schedule: Q01DX009 (ip), vehicle: saline",109 % of control
same,T/C,"dose: 9.0 mg/kg/injection, schedule: Q01DX015 (ip), vehicle: carboxymethylcellulose (CMC)",159 % of control
same,T/C,"dose: 15.0 mg/kg/injection, schedule: Q01DX009 (ip), vehicle: saline",111 % of control
same,T/C,"dose: 15.0 mg/kg/injection, schedule: Q01DX015 (ip), vehicle: carboxymethylcellulose (CMC)",105 % of control
same,T/C,"dose: 22.0 mg/kg/injection, schedule: Q01DX001 (ip), vehicle: carboxymethylcellulose (CMC)",111 % of control
same,T/C,"dose: 25.0 mg/kg/injection, schedule: Q01DX015 (ip), vehicle: carboxymethylcellulose (CMC)",94 % of control and 97 % of control
same,T/C,"dose: 25.0 mg/kg/injection, schedule: Q04DX003 (ip), vehicle: saline",86 % of control
same,T/C,"dose: 33.0 mg/kg/injection, schedule: Q01DX001 (ip), vehicle: carboxymethylcellulose (CMC)",108 % of control
same,T/C,"dose: 50.0 mg/kg/injection, schedule: Q01DX001 (ip), vehicle: carboxymethylcellulose (CMC)",113 % of control
same,T/C,[10],119 % of control
same,T/C,[7],117 % of control
same,T/C,[8],117 % of control
same,T/C,[9],123 % of control
C=C(NC(C)=O)C(=O)OC,T/C,"dose: 75.0 mg/kg/injection, schedule: Q04DX003 (ip), vehicle: saline",102 % of control
same,T/C,"dose: 150.0 mg/kg/injection, schedule: Q04DX003 (ip), vehicle: saline",100 % of control
same,T/C,"dose: 300.0 mg/kg/injection, schedule: Q04DX003 (ip), vehicle: saline",97 % of control
CC(C)CC(=O)CC(O)(C(F)(F)F)C(F)(F)F,T/C,[11],101 % of control
same,T/C,[10],94 % of control
same,T/C,"dose: 100.0 mg/kg/injection, schedule: Q01DX009 (ip), vehicle: saline",104 % of control
same,T/C,"dose: 100.0 mg/kg/injection, schedule: Q04DX003 (ip), vehicle: saline",92 % of control
same,T/C,"dose: 200.0 mg/kg/injection, schedule: Q01DX009 (ip), vehicle: saline",104 % of control
same,T/C,"dose: 200.0 mg/kg/injection, schedule: Q04DX003 (ip), vehicle: saline",100 % of control
same,T/C,"dose: 400.0 mg/kg/injection, schedule: Q01DX009 (ip), vehicle: saline",93 % of control
same,T/C,"dose: 400.0 mg/kg/injection, schedule: Q04DX003 (ip), vehicle: saline",103 % of control
C/C(=N/O)c1ccc(C)s1,T/C,[7],94 % of control
same,T/C,[8],100 % of control
same,T/C,[9],100 % of control
O=C(Nc1cccc(Cl)c1)NS(=O)(=O)c1ccccc1,T/C,[12],97 % of control
same,T/C,[13],105 % of control
same,T/C,[14],106 % of control
CCCCS(=O)(=O)c1ccc(OC)c(NC(C)=O)c1,T/C,"dose: 75.0 mg/kg/injection, schedule: Q04DX003 (ip), vehicle: Klucel (hydroxypropylcellulose) (HPC)",103 % of control
same,T/C,"dose: 100.0 mg/kg/injection, schedule: Q01DX001 (ip), vehicle: Klucel (hydroxypropylcellulose) (HPC)",98 % of control
same,T/C,"dose: 150.0 mg/kg/injection, schedule: Q04DX003 (ip), vehicle: Klucel (hydroxypropylcellulose) (HPC)",96 % of control
same,T/C,"dose: 200.0 mg/kg/injection, schedule: Q01DX001 (ip), vehicle: Klucel (hydroxypropylcellulose) (HPC)",107 % of control
same,T/C,"dose: 300.0 mg/kg/injection, schedule: Q04DX003 (ip), vehicle: Klucel (hydroxypropylcellulose) (HPC)",107 % of control
same,T/C,"dose: 400.0 mg/kg/injection, schedule: Q01DX001 (ip), vehicle: Klucel (hydroxypropylcellulose) (HPC)",100 % of control
Cc1cc(C)c(C(=O)O)c(O)c1,T/C,[8],93 % of control
COc1ccc(-c2nc3ccccc3s2)cc1OC,T/C,[15],95 % of control and 105 % of control
same,T/C,[16],98 % of control and 102 % of control
same,T/C,[17],98 % of control and 105 % of control
COc1ccc(C(=O)OCC(Br)CBr)cc1 (stereo unspecified),T/C,"dose: 222.0 mg/kg/injection, schedule: Q01DX Z (ip), vehicle: methylcellulose (MC)",102 % of control
same,T/C,"dose: 333.0 mg/kg/injection, schedule: Q01DX Z (ip), vehicle: methylcellulose (MC)",108 % of control
same,T/C,"dose: 500.0 mg/kg/injection, schedule: Q01DX Z (ip), vehicle: methylcellulose (MC)",103 % of control
C#CCOCCCC(=C)C,T/C,"dose: 25.0 mg/kg/injection, schedule: Q01DX009 (ip), vehicle: saline",109 % of control
same,T/C,[11],93 % of control
N#Cc1[nH]cnc1NN=NCCCl,T/C,"dose: 12.5 mg/kg/injection, schedule: Q01DX001 (ip), vehicle: saline with Tween-80",109 % of control
same,T/C,"dose: 25.0 mg/kg/injection, schedule: Q01DX001 (ip), vehicle: saline with Tween-80",104 % of control
same,T/C,[1],116 % of control
same,T/C,[2],118 % of control
CCCC(C1=CC(C)(C)c2ccccc2C1=O)c1ccc(Br)cc1 (stereo unspecified),T/C,[12],108 % of control
same,T/C,[15],110 % of control
same,T/C,[13],106 % of control
same,T/C,[16],113 % of control
same,T/C,[14],103 % of control
same,T/C,[17],106 % of control
COc1cccc2cc([N+](=O)[O-])oc12,T/C,[18],98 % of control
same,T/C,[19],93 % of control
same,T/C,"dose: 50.0 mg/kg/injection, schedule: Q04DX002 (ip), vehicle: Klucel (hydroxypropylcellulose) (HPC)",105 % of control
same,T/C,[12],101 % of control
same,T/C,"dose: 100.0 mg/kg/injection, schedule: Q04DX002 (ip), vehicle: Klucel (hydroxypropylcellulose) (HPC)",94 % of control
same,T/C,"dose: 200.0 mg/kg/injection, schedule: Q04DX002 (ip), vehicle: Klucel (hydroxypropylcellulose) (HPC)",101 % of control
NC1CCC(CC2CCCCC2)CC1 (stereo unspecified),T/C,[18],96 % of control
same,T/C,"dose: 25.0 mg/kg/injection, schedule: Q04DX003 (ip), vehicle: Klucel (hydroxypropylcellulose) (HPC)",95 % of control
same,T/C,[19],98 % of control
same,T/C,"dose: 50.0 mg/kg/injection, schedule: Q04DX003 (ip), vehicle: Klucel (hydroxypropylcellulose) (HPC)",100 % of control
same,T/C,[15],91 % of control
CC(=O)Nc1cc2c(cc1CC(=O)O)OCO2,T/C,[3],101 % of control
same,T/C,[4],95 % of control
same,T/C,[5],95 % of control
same,T/C,[6],101 % of control
CC1(CCc2ccc(N)cc2)NC(=O)NC1=O (stereo unspecified),T/C,[15],110 % of control
same,T/C,[16],96 % of control
same,T/C,[17],93 % of control
